Columns and labels:
Assay type in all cases: in vivo
Monochoria vaginalis [1] = experiment: Test Example 1: herbicidal activity, application before weed generation in submerged conditions (symbol C); details: application herbicide amount 320 g/ha
Method in brief: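 Weed control was rated three weeks after treatment on a 0–5 scale, from 5% or lower up to 90% or more. Pre-emergence water-surface application of diluted emulsion at a predetermined rate was made on the day of sowing, in flooded (4 cm water) pots containing rice seedlings, kept at 25–30 °C under glass.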

rapeseed = experiment: Test Example 5: effect on crop by foliage application, plastic box (symbol g); details: 320 g/ha, 3 weeks after application
Method in brief: (§1)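 Seeds were sown in spots in sterilized diluvial soil held in a plastic box 21 cm × 13 cm × 7 cm deep, covered with about 1.5 cm of soil, and grown in a greenhouse at 25° C. to 30° C.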

Monochoria vaginalis [2] = experiment: Test Example 2: herbicidal activity, application during weed generation in submerged conditions (symbol C); details: Table 23; application herbicide amount 320 g/ha; grade 0-5 by criteria of Test Example 1
Method in brief: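 Alluvial soil in pots was flooded to a 4 cm water depth and sown with a mix of the three weed species, then grown in a greenhouse at 25° C. to 30° C. At the one- to two-leaf stage, an emulsifiable formulation diluted in water to a set dose was applied to the water surface. Effects were scored visually 3 weeks later.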

[3] = tested on: Echinochloa crus-galli var. crus-galli; experiment: Test Example 5: herbicidal effect by foliage application, plastic box (symbol H); details: 320 g/ha, 3 weeks after application
Method in brief: (§2)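 Emulsion formulation, diluted with water to the intended rate, was applied uniformly to leaves by small sprayer. Recipients were 14-day greenhouse-grown seedlings (25° C. to 30° C.). Assessment followed at 3 weeks.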

Veronica persica = experiment: Test Example 4: herbicidal effect by soil treatment (symbol R)
Method in brief: (§3)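 Seeds were sown in sterilized diluvial soil, covered with about 1.5 cm of soil, and the soil surface was sprayed with a water-diluted emulsion of the compound at a predetermined rate. Plants grew in a greenhouse at 25° C. to 30° C.; effects were scored visually 3 weeks after application.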

Chenopodium album = experiment: Test Example 4: herbicidal effect by soil treatment (symbol O)
Method in brief: as §3

Avena fatua = experiment: Test Example 4: herbicidal effect by soil treatment (symbol I)
Method in brief: as §3

Apera spica-venti = experiment: Test Example 5: herbicidal effect by foliage application, plastic box (symbol L); details: 320 g/ha, 3 weeks after application
Method in brief: as §2

corn = experiment: Test Example 5: effect on crop by foliage application, plastic box (symbol c); details: 320 g/ha, 3 weeks after application
Method in brief: as §1

Abutilon theophrasti = experiment: Test Example 5: herbicidal effect by foliage application, plastic box (symbol M); details: 320 g/ha, 3 weeks after application
Method in brief: as §2

beet = experiment: Test Example 4: effect on crop by soil treatment (symbol f); details: for f: beet, effect on crop grade: application herbicide amount 320 g/ha; for f: beet, effect grade on crop: 320 g/ha
Method in brief: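 Plants grew in a 25° C. to 30° C. greenhouse after spot-sowing of seeds, including beet, rapeseed, wheat and rice, into sterilized diluvial soil under roughly 1.5 cm of cover soil.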

[4] = tested on: directly sowed rice plant; experiment: Test Example 3: effect on crop by foliage application, Wagner pot (symbol b); details: application herbicide amount 320 g/ha
Method in brief: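 Steps: fill a 1/10000-are Wagner pot with alluvial soil; add water and mix to submerge at 0.1–0.5 cm depth; sow rice plus Echinochloa crus-galli var. crus-galli, Leptochloa chinensis and Cyperus difformis; grow in a 25–30 °C greenhouse.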

Setaria viridis = experiment: Test Example 4: herbicidal effect by soil treatment (symbol G)
Method in brief: as §3

soybean = experiment: Test Example 5: effect on crop by foliage application, plastic box (symbol d); details: 320 g/ha, 3 weeks after application
Method in brief: as §1

[5] = application herbicide amount 320 g/ha

CON=CC1CC(O)=C(c2c(C)cc(C)cc2C)C1=O (mixture of isomers) [3-001]
Herbicidal effect grade, C: Monochoria vaginalis (Monochoria vaginalis [1]): 0 (Herbicidal ratio of 5% or lower (almost no effect)) | g: rapeseed, effect on crop grade (rapeseed): 0 (Herbicidal ratio of 5% or lower (almost no effect)) | Herbicidal effect grade, C: Monochoria vaginalis (Monochoria vaginalis [2]): 0 (Herbicidal ratio of 5% or lower (almost no effect)) | H: Echinochloa crus-galli var. crus-galli, herbicidal effect grade [3]: 4 (Herbicidal ratio of 70% or higher and lower than 90%) | R: Veronica persica, herbicidal effect grade (Veronica persica; [5]): 0 (Herbicidal ratio of 5% or lower (almost no effect)) | O: Chenopodium album, herbicidal effect grade (Chenopodium album; [5]): 0 (Herbicidal ratio of 5% or lower (almost no effect)) | I: Avena fatua, herbicidal effect grade (Avena fatua; [5]): 0 (Herbicidal ratio of 5% or lower (almost no effect)) | L: Apera spica-venti, herbicidal effect grade (Apera spica-venti): 3 (Herbicidal ratio of 40% or higher and lower than 70%) | c: corn, effect on crop grade (corn): 2 (Herbicidal ratio of 20% or higher and lower than 40%) | M: Abutilon theophrasti, herbicidal effect grade (Abutilon theophrasti): 0 (Herbicidal ratio of 5% or lower (almost no effect)) | f: beet, effect on crop grade (beet): 0 (Herbicidal ratio of 5% or lower (almost no effect)) | effect on crop b (directly sowed rice plant), grade 0-5 [4]: 2 (Herbicidal ratio of 20% or higher and lower than 40%) | G: Setaria viridis, herbicidal effect grade (Setaria viridis; [5]): 0 (Herbicidal ratio of 5% or lower (almost no effect)) | d: soybean, effect on crop grade (soybean): 0 (Herbicidal ratio of 5% or lower (almost no effect))

CON=C(C)C1CC(O)=C(c2c(C)cc(C)cc2C)C1=O (mixture of isomers) [3-002]
Herbicidal effect grade, C: Monochoria vaginalis (Monochoria vaginalis [1]): 0 (Herbicidal ratio of 5% or lower (almost no effect)) | g: rapeseed, effect on crop grade (rapeseed): 0 (Herbicidal ratio of 5% or lower (almost no effect)) | Herbicidal effect grade, C: Monochoria vaginalis (Monochoria vaginalis [2]): 0 (Herbicidal ratio of 5% or lower (almost no effect)) | H: Echinochloa crus-galli var. crus-galli, herbicidal effect grade [3]: 1 (Herbicidal ratio of 5% or higher and lower than 20%) | R: Veronica persica, herbicidal effect grade (Veronica persica; [5]): 0 (Herbicidal ratio of 5% or lower (almost no effect)) | O: Chenopodium album, herbicidal effect grade (Chenopodium album; [5]): 0 (Herbicidal ratio of 5% or lower (almost no effect)) | I: Avena fatua, herbicidal effect grade (Avena fatua; [5]): 0 (Herbicidal ratio of 5% or lower (almost no effect)) | L: Apera spica-venti, herbicidal effect grade (Apera spica-venti): 0 (Herbicidal ratio of 5% or lower (almost no effect)) | c: corn, effect on crop grade (corn): 0 (Herbicidal ratio of 5% or lower (almost no effect)) | M: Abutilon theophrasti, herbicidal effect grade (Abutilon theophrasti): 0 (Herbicidal ratio of 5% or lower (almost no effect)) | f: beet, effect on crop grade (beet): 0 (Herbicidal ratio of 5% or lower (almost no effect)) | effect on crop b (directly sowed rice plant), grade 0-5 [4]: 0 (Herbicidal ratio of 5% or lower (almost no effect)) | G: Setaria viridis, herbicidal effect grade (Setaria viridis; [5]): 0 (Herbicidal ratio of 5% or lower (almost no effect)) | d: soybean, effect on crop grade (soybean): 0 (Herbicidal ratio of 5% or lower (almost no effect))

CC#Cc1cc(C)c(C2=C(O)CC(CC(C)=NOC)C2=O)c(CC)c1 (mixture of isomers) [6-006]
Herbicidal effect grade, C: Monochoria vaginalis (Monochoria vaginalis [1]): 1 (Herbicidal ratio of 5% or higher and lower than 20%) | g: rapeseed, effect on crop grade (rapeseed): 4 (Herbicidal ratio of 70% or higher and lower than 90%) | Herbicidal effect grade, C: Monochoria vaginalis (Monochoria vaginalis [2]): 1 (Herbicidal ratio of 5% or higher and lower than 20%) | H: Echinochloa crus-galli var. crus-galli, herbicidal effect grade [3]: 4 (Herbicidal ratio of 70% or higher and lower than 90%) | R: Veronica persica, herbicidal effect grade (Veronica persica; [5]): 2 (Herbicidal ratio of 20% or higher and lower than 40%) | O: Chenopodium album, herbicidal effect grade (Chenopodium album; [5]): 0 (Herbicidal ratio of 5% or lower (almost no effect)) | I: Avena fatua, herbicidal effect grade (Avena fatua; [5]): 4 (Herbicidal ratio of 70% or higher and lower than 90%) | L: Apera spica-venti, herbicidal effect grade (Apera spica-venti): 3 (Herbicidal ratio of 40% or higher and lower than 70%) | c: corn, effect on crop grade (corn): 1 (Herbicidal ratio of 5% or higher and lower than 20%) | M: Abutilon theophrasti, herbicidal effect grade (Abutilon theophrasti): 0 (Herbicidal ratio of 5% or lower (almost no effect)) | f: beet, effect on crop grade (beet): 0 (Herbicidal ratio of 5% or lower (almost no effect)) | effect on crop b (directly sowed rice plant), grade 0-5 [4]: 5 (Herbicidal ratio of 90% or more (almost completely withered)) | G: Setaria viridis, herbicidal effect grade (Setaria viridis; [5]): 5 (Herbicidal ratio of 90% or more (almost completely withered)) | d: soybean, effect on crop grade (soybean): 0 (Herbicidal ratio of 5% or lower (almost no effect))

CON=C(C)CC1CC(OC(=O)N2CCCCC2)=C(c2c(C)cc(C)cc2C)C1=O (centres unmarked) [1-151]
Herbicidal effect grade, C: Monochoria vaginalis (Monochoria vaginalis [1]): 0 (Herbicidal ratio of 5% or lower (almost no effect)) | g: rapeseed, effect on crop (criteria 0-5) (rapeseed): 4 (Herbicidal ratio of 70% or higher and lower than 90%) | Herbicidal effect grade, C: Monochoria vaginalis (Monochoria vaginalis [2]): 2 (Herbicidal ratio of 20% or higher and lower than 40%) | H: Echinochloa crus-galli var. crus-galli, herbicidal effect (criteria 0-5) [3]: 5 (Herbicidal ratio of 90% or more (almost completely withered)) | R: Veronica persica, herbicidal effect grade (Veronica persica; 320 g/ha): 0 (Herbicidal ratio of 5% or lower (almost no effect)) | O: Chenopodium album, herbicidal effect grade (Chenopodium album; 320 g/ha): 0 (Herbicidal ratio of 5% or lower (almost no effect)) | I: Avena fatua, herbicidal effect grade (Avena fatua; 320 g/ha): 3 (Herbicidal ratio of 40% or higher and lower than 70%) | L: Apera spica-venti, herbicidal effect (criteria 0-5) (Apera spica-venti): 5 (Herbicidal ratio of 90% or more (almost completely withered)) | c: corn, effect on crop (criteria 0-5) (corn): 4 (Herbicidal ratio of 70% or higher and lower than 90%) | M: Abutilon theophrasti, herbicidal effect (criteria 0-5) (Abutilon theophrasti): 3 (Herbicidal ratio of 40% or higher and lower than 70%) | f: beet, effect grade on crop (beet): 0 (Herbicidal ratio of 5% or lower (almost no effect)) | effect on crop b (directly sowed rice plant), grade 0-5 [4]: 5 (Herbicidal ratio of 90% or more (almost completely withered)) | d: soybean, effect on crop (criteria 0-5) (soybean): 2 (Herbicidal ratio of 20% or higher and lower than 40%)

CON=C(C)CC1CC(OC(=O)C(C)Oc2ccc(Oc3ccc(Cl)cc3Cl)cc2)=C(c2c(C)cc(C)cc2C)C1=O (centres unmarked) [1-163]
Herbicidal effect grade, C: Monochoria vaginalis (Monochoria vaginalis [1]): 0 (Herbicidal ratio of 5% or lower (almost no effect)) | g: rapeseed, effect on crop grade (rapeseed): 5 (Herbicidal ratio of 90% or more (almost completely withered)) | Herbicidal effect grade, C: Monochoria vaginalis (Monochoria vaginalis [2]): 3 (Herbicidal ratio of 40% or higher and lower than 70%) | H: Echinochloa crus-galli var. crus-galli, herbicidal effect grade [3]: 5 (Herbicidal ratio of 90% or more (almost completely withered)) | R: Veronica persica, herbicidal effect grade (Veronica persica; 320 g/ha): 0 (Herbicidal ratio of 5% or lower (almost no effect)) | O: Chenopodium album, herbicidal effect grade (Chenopodium album; 320 g/ha): 0 (Herbicidal ratio of 5% or lower (almost no effect)) | I: Avena fatua, herbicidal effect grade (Avena fatua; 320 g/ha): 3 (Herbicidal ratio of 40% or higher and lower than 70%) | L: Apera spica-venti, herbicidal effect grade (Apera spica-venti): 5 (Herbicidal ratio of 90% or more (almost completely withered)) | c: corn, effect on crop grade (corn): 4 (Herbicidal ratio of 70% or higher and lower than 90%) | M: Abutilon theophrasti, herbicidal effect grade (Abutilon theophrasti): 4 (Herbicidal ratio of 70% or higher and lower than 90%) | f: beet, effect grade on crop (beet): 0 (Herbicidal ratio of 5% or lower (almost no effect)) | G: Setaria viridis, herbicidal effect grade (Setaria viridis; 320 g/ha): 5 (Herbicidal ratio of 90% or more (almost completely withered)) | d: soybean, effect on crop grade (soybean): 2 (Herbicidal ratio of 20% or higher and lower than 40%)

Source: patent US11000033B2, “Ketone or oxime compound, and herbicide” (NISSAN CHEMICAL CORPORATION, priority 2014, dated 2021)
